Results reported in patent US9487749B2 (priority 2009, dated 2016).

Columns and labels:
Chlorella minutissima = test: Algal growth with MSM by percent transmittance; type: cell-based
Experimental: (§1) Two species of Chlorella were examined for growth—Chlorella sorokiniana a freshwater species and Chlorella minutissima a marine species. […] Growth was measured on day 0, 1, 2, 3, 4, 5, 6, 7, 8, 9 and 10. […] The following media were purchased from UTEX Culture Collection of Algae: Enriched Salt Water Medium and Volvox Dextrose Medium.
(§2) The algae were grown for 48 hours in the appropriate medium. The initial suspension was enumerated for each alga and is referred to as the starting inoculums. Chlorella sorokiniana was at 381 million cells per milliliter and Chlorella minutissima was at 19 million cells per milliliter. One milliliter of the algal solution was placed into 9 mLs of medium and mixed by vortexing. […] The tube of algae and MSM were incubated at room temperature with exposure to sunlight. […] Each dilution of MSM for each organism was set up in and analyzed in triplicate for each time interval measured. The samples were measured by percent transmittance on a UV/VIS spectrophotometer at wavelength 750 nm. The medium stock was tested for percent transmittance background levels at every time interval were measured. The lower percent transmittance indicated a higher growth factor.

Chlorella sorokiniana = test: Algal growth with MSM by percent transmittance; type: cell-based
Experimental: as §1, §2

Question: What does the source list for `CS(C)(=O)=O` [MSM, Methylsulfonylmethane]?
Answer: percent transmittance (Chlorella minutissima; MSM Percentage 0.5, day 0, 750 nm): 93.5%; percent transmittance (Chlorella minutissima; MSM Percentage 0.5, day 1, 750 nm): 70.1%; percent transmittance (Chlorella minutissima; MSM Percentage 0.5, day 2, 750 nm): 45.4%; percent transmittance (Chlorella minutissima; MSM Percentage 0.5, day 3, 750 nm): 32.1%; percent transmittance (Chlorella minutissima; MSM Percentage 0.5, day 4, 750 nm): 27.6%; percent transmittance (Chlorella minutissima; MSM Percentage 0.5, day 5, 750 nm): 26.6%; percent transmittance (Chlorella minutissima; MSM Percentage 0.5, day 6, 750 nm): 25.1%; percent transmittance (Chlorella minutissima; MSM Percentage 0.5, day 7, 750 nm): 23.6%; percent transmittance (Chlorella minutissima; MSM Percentage 0.5, day 8, 750 nm): 22.8%; percent transmittance (Chlorella minutissima; MSM Percentage 0.5, day 9, 750 nm): 20.4%; percent transmittance (Chlorella minutissima; MSM Percentage 0.5, day 10, 750 nm): 18.9%; percent transmittance (Chlorella minutissima; MSM Percentage 1.0, day 0, 750 nm): 91.1%; percent transmittance (Chlorella minutissima; MSM Percentage 1.0, day 1, 750 nm): 80.5%; percent transmittance (Chlorella minutissima; MSM Percentage 1.0, day 2, 750 nm): 40.0%; percent transmittance (Chlorella minutissima; MSM Percentage 1.0, day 3, 750 nm): 31.0%; percent transmittance (Chlorella minutissima; MSM Percentage 1.0, day 4, 750 nm): 27.9%; percent transmittance (Chlorella minutissima; MSM Percentage 1.0, day 5, 750 nm): 26.5%; percent transmittance (Chlorella minutissima; MSM Percentage 1.0, day 6, 750 nm): 25.4%; percent transmittance (Chlorella minutissima; MSM Percentage 1.0, day 7, 750 nm): 24.4%; percent transmittance (Chlorella minutissima; MSM Percentage 1.0, day 8, 750 nm): 23.7%; percent transmittance (Chlorella minutissima; MSM Percentage 1.0, day 9, 750 nm): 21.0%; percent transmittance (Chlorella minutissima; MSM Percentage 1.0, day 10, 750 nm): 19.4%; percent transmittance (Chlorella minutissima; MSM Percentage 2.5, day 0, 750 nm): 82.8%; percent transmittance (Chlorella minutissima; MSM Percentage 2.5, day 1, 750 nm): 75.1%; percent transmittance (Chlorella minutissima; MSM Percentage 2.5, day 2, 750 nm): 59.5%; percent transmittance (Chlorella minutissima; MSM Percentage 2.5, day 3, 750 nm): 45.4%; percent transmittance (Chlorella minutissima; MSM Percentage 2.5, day 4, 750 nm): 33.6%; percent transmittance (Chlorella minutissima; MSM Percentage 2.5, day 5, 750 nm): 32.4%; percent transmittance (Chlorella minutissima; MSM Percentage 2.5, day 6, 750 nm): 30.0%; percent transmittance (Chlorella minutissima; MSM Percentage 2.5, day 7, 750 nm): 28.6%; percent transmittance (Chlorella minutissima; MSM Percentage 2.5, day 8, 750 nm): 27.7%; percent transmittance (Chlorella minutissima; MSM Percentage 2.5, day 9, 750 nm): 23.3%; percent transmittance (Chlorella minutissima; MSM Percentage 2.5, day 10, 750 nm): 21.1%; percent transmittance (Chlorella minutissima; MSM Percentage 5.0, day 0, 750 nm): 68.9%; percent transmittance (Chlorella minutissima; MSM Percentage 5.0, day 1, 750 nm): 87.4%; percent transmittance (Chlorella minutissima; MSM Percentage 5.0, day 2, 750 nm): 76.5%; percent transmittance (Chlorella minutissima; MSM Percentage 5.0, day 3, 750 nm): 62.0%; percent transmittance (Chlorella minutissima; MSM Percentage 5.0, day 4, 750 nm): 52.9%; percent transmittance (Chlorella minutissima; MSM Percentage 5.0, day 5, 750 nm): 52.2%; percent transmittance (Chlorella minutissima; MSM Percentage 5.0, day 6, 750 nm): 50.7%; percent transmittance (Chlorella minutissima; MSM Percentage 5.0, day 7, 750 nm): 51.0%; percent transmittance (Chlorella minutissima; MSM Percentage 5.0, day 8, 750 nm): 51.9%; percent transmittance (Chlorella minutissima; MSM Percentage 5.0, day 9, 750 nm): 47.1%; percent transmittance (Chlorella minutissima; MSM Percentage 5.0, day 10, 750 nm): 44.1%; percent transmittance (Chlorella minutissima; MSM Percentage 10.0, day 0, 750 nm): 49.6%; percent transmittance (Chlorella minutissima; MSM Percentage 10.0, day 1, 750 nm): 49.2%; percent transmittance (Chlorella minutissima; MSM Percentage 10.0, day 2, 750 nm): 50.8%; percent transmittance (Chlorella minutissima; MSM Percentage 10.0, day 3, 750 nm): 51.9%; percent transmittance (Chlorella minutissima; MSM Percentage 10.0, day 4, 750 nm): 52.0%; percent transmittance (Chlorella minutissima; MSM Percentage 10.0, day 5, 750 nm): 51.9%; percent transmittance (Chlorella minutissima; MSM Percentage 10.0, day 6, 750 nm): 54.9%; percent transmittance (Chlorella minutissima; MSM Percentage 10.0, day 7, 750 nm): 56.1%; percent transmittance (Chlorella minutissima; MSM Percentage 10.0, day 8, 750 nm): 58.6%; percent transmittance (Chlorella minutissima; MSM Percentage 10.0, day 9, 750 nm): 41.4%; percent transmittance (Chlorella minutissima; MSM Percentage 10.0, day 10, 750 nm): 36.7%; percent transmittance (Chlorella minutissima; MSM Percentage 20.0, day 0, 750 nm): 30.0%; percent transmittance (Chlorella minutissima; MSM Percentage 20.0, day 1, 750 nm): 33.8%; percent transmittance (Chlorella minutissima; MSM Percentage 20.0, day 2, 750 nm): 51.1%; percent transmittance (Chlorella minutissima; MSM Percentage 20.0, day 3, 750 nm): 54.8%; percent transmittance (Chlorella minutissima; MSM Percentage 20.0, day 4, 750 nm): 57.3%; percent transmittance (Chlorella minutissima; MSM Percentage 20.0, day 5, 750 nm): 57.5%; percent transmittance (Chlorella minutissima; MSM Percentage 20.0, day 6, 750 nm): 57.4%; percent transmittance (Chlorella minutissima; MSM Percentage 20.0, day 7, 750 nm): 57.1%; percent transmittance (Chlorella minutissima; MSM Percentage 20.0, day 8, 750 nm): 55.8%; percent transmittance (Chlorella minutissima; MSM Percentage 20.0, day 9, 750 nm): 45.1%; percent transmittance (Chlorella minutissima; MSM Percentage 20.0, day 10, 750 nm): 30.2%; percent transmittance (Chlorella sorokiniana; MSM 0.5, day 0, 750 nm): 47.3%; percent transmittance (Chlorella sorokiniana; MSM 0.5, day 1, 750 nm): 41.8%; percent transmittance (Chlorella sorokiniana; MSM 0.5, day 2, 750 nm): 29.3%; percent transmittance (Chlorella sorokiniana; MSM 0.5, day 3, 750 nm): 29.6%
